Experimental findings from paper PMC9481106, “Design, synthesis and biological evaluation of 2,4-pyrimidinediamine derivatives as ALK and HDACs dual inhibitors for the treatment of ALK addicted cancer” (Journal of Enzyme Inhibition and Medicinal Chemistry, 2022) are described below.

Usually IC50 stands for the concentration that gives 50% inhibition.

The target in test [1] is ALK^wt (anaplastic lymphoma kinase) (Homo sapiens, UniProt Q9UM73). As to the kind of experiment: enzyme inhibition assay with fluorescent assay kit. The format is biochemical.
Another test has as its target HDAC1 (Homo sapiens, UniProt Q13547). Kind of test: enzyme inhibition assay with fluorescent assay kit. In kind it is biochemical.

SMILES strings stand for the structures.

ALK^wt (anaplastic lymphoma kinase), sequence (Q9UM73 19-1620): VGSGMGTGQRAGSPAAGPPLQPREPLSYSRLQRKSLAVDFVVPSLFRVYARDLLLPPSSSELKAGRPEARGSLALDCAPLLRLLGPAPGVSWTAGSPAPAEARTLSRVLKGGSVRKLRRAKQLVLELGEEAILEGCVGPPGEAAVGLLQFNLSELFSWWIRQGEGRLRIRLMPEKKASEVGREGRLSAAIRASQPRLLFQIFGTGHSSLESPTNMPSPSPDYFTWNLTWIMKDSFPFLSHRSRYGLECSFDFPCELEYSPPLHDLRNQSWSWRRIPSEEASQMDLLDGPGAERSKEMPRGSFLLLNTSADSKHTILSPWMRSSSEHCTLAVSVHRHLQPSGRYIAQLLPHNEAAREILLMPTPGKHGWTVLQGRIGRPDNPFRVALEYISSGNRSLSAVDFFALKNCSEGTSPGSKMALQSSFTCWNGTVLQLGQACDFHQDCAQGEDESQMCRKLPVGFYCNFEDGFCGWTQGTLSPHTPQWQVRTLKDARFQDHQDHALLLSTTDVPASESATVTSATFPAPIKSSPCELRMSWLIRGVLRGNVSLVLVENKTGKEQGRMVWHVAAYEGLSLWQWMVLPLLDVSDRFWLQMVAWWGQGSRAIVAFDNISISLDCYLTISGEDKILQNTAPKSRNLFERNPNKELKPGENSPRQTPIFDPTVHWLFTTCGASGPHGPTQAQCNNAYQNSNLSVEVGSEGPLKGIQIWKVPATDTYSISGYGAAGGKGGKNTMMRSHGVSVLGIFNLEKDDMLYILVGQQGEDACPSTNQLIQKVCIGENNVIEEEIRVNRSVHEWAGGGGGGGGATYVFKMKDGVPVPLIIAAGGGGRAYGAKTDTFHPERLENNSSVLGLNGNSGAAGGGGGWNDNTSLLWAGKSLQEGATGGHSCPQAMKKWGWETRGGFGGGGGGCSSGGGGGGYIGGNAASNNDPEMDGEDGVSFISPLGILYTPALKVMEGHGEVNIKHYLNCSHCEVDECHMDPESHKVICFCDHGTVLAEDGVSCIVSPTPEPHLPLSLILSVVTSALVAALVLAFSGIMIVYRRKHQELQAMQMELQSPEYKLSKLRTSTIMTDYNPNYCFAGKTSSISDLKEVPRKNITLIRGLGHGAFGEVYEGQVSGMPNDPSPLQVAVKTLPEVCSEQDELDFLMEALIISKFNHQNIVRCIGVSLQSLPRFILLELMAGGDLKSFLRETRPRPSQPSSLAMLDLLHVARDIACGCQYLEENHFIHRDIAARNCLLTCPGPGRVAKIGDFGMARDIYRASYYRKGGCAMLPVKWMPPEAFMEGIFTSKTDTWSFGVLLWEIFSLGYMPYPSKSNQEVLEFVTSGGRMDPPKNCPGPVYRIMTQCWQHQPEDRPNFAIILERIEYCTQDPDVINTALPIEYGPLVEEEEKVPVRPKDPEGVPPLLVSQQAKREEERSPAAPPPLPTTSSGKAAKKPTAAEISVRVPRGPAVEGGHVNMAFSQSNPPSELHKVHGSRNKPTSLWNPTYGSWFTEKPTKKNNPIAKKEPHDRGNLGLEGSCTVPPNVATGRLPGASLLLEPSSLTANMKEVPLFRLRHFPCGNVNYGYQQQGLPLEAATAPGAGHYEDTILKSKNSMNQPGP
HDAC1, sequence (Q13547 whole entry): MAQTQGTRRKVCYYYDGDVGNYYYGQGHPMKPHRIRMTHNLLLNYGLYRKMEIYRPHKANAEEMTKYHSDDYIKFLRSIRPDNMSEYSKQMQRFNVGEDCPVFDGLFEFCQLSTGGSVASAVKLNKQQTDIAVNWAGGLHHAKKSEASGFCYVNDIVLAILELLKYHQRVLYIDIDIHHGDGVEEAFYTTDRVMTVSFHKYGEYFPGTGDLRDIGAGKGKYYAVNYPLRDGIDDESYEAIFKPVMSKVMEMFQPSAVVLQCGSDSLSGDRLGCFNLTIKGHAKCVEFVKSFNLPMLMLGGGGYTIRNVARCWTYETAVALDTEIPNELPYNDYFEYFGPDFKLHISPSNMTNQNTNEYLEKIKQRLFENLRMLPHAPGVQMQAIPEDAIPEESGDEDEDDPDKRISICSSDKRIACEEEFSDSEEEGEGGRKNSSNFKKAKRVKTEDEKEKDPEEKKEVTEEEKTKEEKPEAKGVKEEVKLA

`CC(C)S(=O)(=O)c1ccccc1Nc1nc(Nc2ccc(C(=O)Nc3ccccc3N)cc2)ncc1Cl` [12a, N-(2-aminophenyl)-4-((5-chloro-4-((2-(isopropylsulfonyl)phenyl)amino)pyrimidin-2-yl)amino)benzamide]: the half-maximal inhibitory concentration (IC50) came out at 9.5 nM in test [1] and 1450 nM against HDAC1.
